From PubChem BioAssay AID324 (DTP/NCI, 2004) come the findings set out here.

“And” between values parts separate entries of the source, which are not always exact repeats. Identical values can stand only once. Toxic doses and inconclusive results are not listed.

The assay concerns CD2F1 mice, AMSA-resistant P388 leukemia ip, median survival T/C. Nature of the assay: NCI In Vivo Anticancer Drug Screen. Data for tumor model P388 Leukemia resistant to AMSA; NSC 249992 (intraperitoneal) in CD2F1 (CDF1) mice. The note with it: endpoint: median survival time, higher = longer survival. Here is the method: The antitumor activity of compounds was measured in mice bearing transplantable tumors. Survival or tumor size were measured and the results are expressed as the measurement made in the treated group (T) divided by the measurement made in the vehicle treated control group (C). The tumor model used in this assay is P388 Leukemia resistant to AMSA; NSC 249992 (intraperitoneal) in CD2F1 (CDF1) mice

The mark [1] stands for this setting: dose: 0.97 mg/kg/injection, schedule: Q04DX003 (ip), vehicle: saline.
[2] abbreviates: dose: 1.62 mg/kg/injection, schedule: Q04DX003 (ip), vehicle: saline.
Setting [3] is: dose: 4.5 mg/kg/injection, schedule: Q04DX003 (ip), vehicle: saline.
Where [4] appears, read: dose: 13.0 mg/kg/injection, schedule: Q04DX003 (ip), vehicle: saline with Tween-80.
Setting [5] is: dose: 21.6 mg/kg/injection, schedule: Q04DX003 (ip), vehicle: saline with Tween-80.
The mark [6] stands for this setting: dose: 36.0 mg/kg/injection, schedule: Q04DX003 (ip), vehicle: saline with Tween-80.
The mark [7] stands for this setting: dose: 60.0 mg/kg/injection, schedule: Q04DX003 (ip), vehicle: saline with Tween-80.

In the case of `COc1cccc2c1C(=O)c1c(O)c3c(c(O)c1C2=O)C[C@@](O)(C(C)=O)C[C@@H]3OC1CC(N)C(O)C(C)O1` (stereo partly specified), the T/C runs as follows: (dose: 0.64 mg/kg/injection, schedule: Q04DX003 (ip), vehicle: water) 115 % of control; (dose: 0.65 mg/kg/injection, schedule: Q04DX003 (ip), vehicle: saline) 103 % of control; under setting [1], 121 % of control; (dose: 1.08 mg/kg/injection, schedule: Q04DX003 (ip), vehicle: saline) 115 % of control; (dose: 1.08 mg/kg/injection, schedule: Q04DX003 (ip), vehicle: water) 118 % of control; under setting [2], 123 % of control. Besides, the T/C is 124 % of control (dose: 1.8 mg/kg/injection, schedule: Q04DX003 (ip), vehicle: saline); 117 % of control (dose: 3.0 mg/kg/injection, schedule: Q04DX003 (ip), vehicle: saline); 123 % of control (dose: 3.0 mg/kg/injection, schedule: Q04DX003 (ip), vehicle: water); 119 % of control under setting [3]; 123 % of control (dose: 5.0 mg/kg/injection, schedule: Q04DX003 (ip), vehicle: water).
As for `Cc1c2ccncc2c(C)c2c1[nH]c1ccccc12`, the T/C is, setting by setting: (dose: 7.78 mg/kg/injection, schedule: Q04DX003 (ip), vehicle: saline with Tween-80) 100 % of control; under setting [4], 87 % of control; (dose: 13.0 mg/kg/injection, schedule: Q04DX003 (ip), vehicle: water) 96 % of control; under setting [5], 100 % of control; (dose: 21.6 mg/kg/injection, schedule: Q04DX003 (ip), vehicle: water) 100 % of control; (dose: 25.9 mg/kg/injection, schedule: Q04DX002 (ip), vehicle: saline with Tween-80) 100 % of control. For the same molecule, the T/C was 101 % of control under setting [6]; 101 % of control (dose: 36.0 mg/kg/injection, schedule: Q04DX003 (ip), vehicle: water); 98 % of control (dose: 43.2 mg/kg/injection, schedule: Q04DX002 (ip), vehicle: saline with Tween-80); 109 % of control under setting [7]; 89 % of control (dose: 60.0 mg/kg/injection, schedule: Q04DX003 (ip), vehicle: water); 95 % of control (dose: 72.0 mg/kg/injection, schedule: Q04DX002 (ip), vehicle: saline with Tween-80). The T/C runs as follows: (dose: 120.0 mg/kg/injection, schedule: Q04DX002 (ip), vehicle: saline with Tween-80) 95 % of control; (dose: 200.0 mg/kg/injection, schedule: Q04DX002 (ip), vehicle: saline with Tween-80) 95 % of control.
Turning to `CO[C@H](C(=O)[C@@H](O)[C@@H](C)O)[C@@H]1Cc2cc3cc(OC4CC(OC5CC(O)C(O)C(C)O5)C(O)C(C)O4)c(C)c(O)c3c(O)c2C(=O)[C@H]1OC1CC(OC2CC(OC3CC(C)(O)C(O)C(C)O3)C(O)C(C)O2)C(O)C(C)O1` (stereo partly specified), the T/C runs as follows: (dose: 0.13 mg/kg/injection, schedule: Q01DX005 (ip), vehicle: saline) 112 % of control; (dose: 0.22 mg/kg/injection, schedule: Q01DX005 (ip), vehicle: saline) 113 % of control; (dose: 0.36 mg/kg/injection, schedule: Q01DX005 (ip), vehicle: saline) 118 % of control.
Regarding `CC(CN1CC(=O)NC(=O)C1)N1CC(=O)NC(=O)C1` (stereo unspecified), the T/C (dose: 300.0 mg/kg/injection, schedule: Q04DX003 (ip), vehicle: saline) was 198 % of control.
For `COc1cccc2c1C(=O)c1c(O)c3c(c(O)c1C2=O)C[C@@](O)(C(=O)CO)C[C@@H]3OC1CC(N)C(O)C(C)O1` (stereo partly specified), the T/C is, setting by setting: under setting [1], 118 % of control and 124 % of control; (dose: 1.3 mg/kg/injection, schedule: Q04DX002 (ip), vehicle: saline) 109 % of control and 86 % of control; under setting [2], 121 % of control; (dose: 2.16 mg/kg/injection, schedule: Q04DX002 (ip), vehicle: saline) 104 % of control; (dose: 2.7 mg/kg/injection, schedule: Q04DX003 (ip), vehicle: saline) 122 % of control; under setting [3], 152 % of control. The T/C (dose: 6.0 mg/kg/injection, schedule: Q04DX002 (ip), vehicle: saline) is 90 % of control.
With `CC(=O)N(C)c1ccc(Nc2cc(C)[nH]c3ccc4ncnc4c23)cc1`, the T/C is 101 % of control (dose: 19.4 mg/kg/injection, schedule: Q04DX002 (ip), vehicle: saline); 104 % of control (dose: 20.7 mg/kg/injection, schedule: Q04DX002 (ip), vehicle: saline); 100 % of control (dose: 32.4 mg/kg/injection, schedule: Q04DX002 (ip), vehicle: saline); 112 % of control (dose: 34.6 mg/kg/injection, schedule: Q04DX002 (ip), vehicle: saline); 119 % of control (dose: 54.0 mg/kg/injection, schedule: Q04DX002 (ip), vehicle: saline); 117 % of control (dose: 57.6 mg/kg/injection, schedule: Q04DX002 (ip), vehicle: saline). Besides, the T/C is 113 % of control (dose: 90.0 mg/kg/injection, schedule: Q04DX002 (ip), vehicle: saline) and 109 % of control (dose: 96.0 mg/kg/injection, schedule: Q04DX002 (ip), vehicle: saline).
For the molecule `CN(C)c1ccc(Nc2c3ccccc3nc3ccccc23)cc1`, the T/C reads like this: under setting [4], 100 % of control; under setting [5], 98 % of control; (dose: 25.9 mg/kg/injection, schedule: Q04DX003 (ip), vehicle: saline) 101 % of control; under setting [6], 96 % of control; (dose: 43.2 mg/kg/injection, schedule: Q04DX003 (ip), vehicle: saline) 104 % of control; under setting [7], 100 % of control. Moreover, the T/C reads like this: (dose: 72.0 mg/kg/injection, schedule: Q04DX003 (ip), vehicle: saline) 100 % of control; (dose: 100.0 mg/kg/injection, schedule: Q04DX003 (ip), vehicle: saline with Tween-80) 103 % of control.
As to `O=C(Nc1ccc(C2=NCCCN2)cc1)c1ccc(C(=O)Nc2ccc(C3=NCCCN3)cc2)cc1`, the T/C (dose: 10.8 mg/kg/injection, schedule: Q04DX003 (ip), vehicle: Klucel (hydroxypropylcellulose) (HPC)) is 167 % of control; the T/C (dose: 18.0 mg/kg/injection, schedule: Q04DX003 (ip), vehicle: Klucel (hydroxypropylcellulose) (HPC)) is 185 % of control; the T/C (dose: 30.0 mg/kg/injection, schedule: Q04DX003 (ip), vehicle: Klucel (hydroxypropylcellulose) (HPC)) was 278 % of control; the T/C (dose: 50.0 mg/kg/injection, schedule: Q04DX003 (ip), vehicle: Klucel (hydroxypropylcellulose) (HPC)) is 95 % of control.
As to `O=c1[nH]cc(F)c(=O)[nH]1`, the T/C (dose: 21.6 mg/kg/injection, schedule: Q04DX003 (ip), vehicle: saline) is 155 % of control; the T/C (dose: 36.0 mg/kg/injection, schedule: Q04DX003 (ip), vehicle: saline) is 165 % of control; the T/C (dose: 60.0 mg/kg/injection, schedule: Q04DX003 (ip), vehicle: saline) is 168 % of control; the T/C (dose: 100.0 mg/kg/injection, schedule: Q04DX003 (ip), vehicle: saline) was 170 % of control.
For `CCCCC(=O)N(c1ccc(Nc2c3ccccc3nc3cc([N+](=O)[O-])ccc23)cc1)S(C)(=O)=O`, the T/C is, setting by setting: (dose: 10.8 mg/kg/injection, schedule: Q04DX003 (ip), vehicle: water) 100 % of control; (dose: 18.0 mg/kg/injection, schedule: Q04DX003 (ip), vehicle: water) 96 % of control; (dose: 30.0 mg/kg/injection, schedule: Q04DX003 (ip), vehicle: water) 95 % of control; (dose: 50.0 mg/kg/injection, schedule: Q04DX003 (ip), vehicle: water) 99 % of control; (dose: 83.3 mg/kg/injection, schedule: Q04DX003 (ip), vehicle: water) 91 % of control.
In the case of `CCCCCCCC(=O)OCC(=O)[C@]1(O)Cc2c(O)c3c(c(O)c2[C@@H](OC2CC(N)C(O)C(C)O2)C1)C(=O)c1c(OC)cccc1C3=O` (stereo partly specified), the T/C (dose: 13.3 mg/kg/injection, schedule: Q04DX003 (ip), vehicle: water) is 102 % of control.
Turning to `Nc1ncn(C2OC(CO)C(O)C2O)c(=O)n1` (stereo unspecified), the T/C by setting is: (dose: 2.59 mg/kg/injection, schedule: Q04DX003 (ip), vehicle: saline) 156 % of control; (dose: 4.32 mg/kg/injection, schedule: Q04DX003 (ip), vehicle: saline) 200 % of control; (dose: 7.2 mg/kg/injection, schedule: Q04DX003 (ip), vehicle: saline) 200 % of control; (dose: 12.0 mg/kg/injection, schedule: Q04DX003 (ip), vehicle: saline) 211 % of control; (dose: 20.0 mg/kg/injection, schedule: Q04DX003 (ip), vehicle: saline) 276 % of control.
